In patent publication EP0080940B1, “Derivatives of 2-phenyl-morpholine and medical compositions” (LABORATOIRE L. LAFON Société anonyme dite:, priority 1981, dated 1983):

What was measured:
Format in all cases: in vivo
souris [1] = assay: Global behaviour and reactivity, mouse
Procedure: (§1) On a résumé ci-après les résultats des essais qui ont été entrepris chez l'animal avec le CRL 40914, ce produit étant administré, sauf indications contraires, en solution dans l'eau (à pH 5) par voie intrapéritonéale sous un volume de 20 ml/kg chez la souris mâle et de 5 ml/kg chez le rat mâle.
Des lots de 3 animaux sont observés avant, puis 15 min, 30 min, 1 h, 2 h, 3 h et 24 h après l'administration de CRL 40914. On observe ce qui suit:
(§2) On a résumé ci-après les résultats des essais qui ont été entrepris chez l'animal avec le CRL 40915, les modalités opératoires étant celles données ci-dessus pour le CR L 40914.

souris [2] = assay: Action on rectal temperature
Procedure: as §1
Des lots de 6 souris reçoivent le CRL 40914; la température rectale est notée toutes les 30 min.

souris [3] = assay: Interaction with apomorphine, mouse; details: 16 mg/kg et 64 mg/kg i.p., une demi-heure avant apomorphine s.c. 1 ou 16 mg/kg
Procedure: Des lots de 6 souris reçoivent le CRL 40914 une demi-heure avant l'injection sous-cutanée d'apomorphine, à la dose de 1 mg/kg ou 16 mg/kg.
as §2

souris [4] = assay: Interaction with reserpine; details: 4 mg/kg mais surtout 16 mg/kg et 64 mg/kg i.p., 4 h après réserpine 2,5 mg/kg i.p.
Procedure: Quatre heures après l'injection intrapéritonéale de 2,5 mg/kg de réserpine, des lots de 6 souris reçoivent le CRL 40914.
as §2

souris [5] = assay: Interaction with oxotremorine; details: oxotrémorine 0,5 mg/kg i.p.
Procedure: Le CRL 40914 est administré à des lots de 6 souris une demi-heure avant l'injection intrapéritonéale de 0,5 mg/kg d'oxotrémorine.
as §2

souris [6] = assay: Action on spontaneous motility (actimeter)
Procedure: Une demi-heure après avoir reçu le CRL 40914, des souris sont placées en actimètre où leur motilité est enregistrée pendant 30 min.
as §2

souris [7] = assay: Interaction with yohimbine, temperature; details: 1 mg/kg et 16 mg/kg de CRL 40914, yohimbine 0,5 mg/kg i.p. une demi-heure avant
Procedure: Des lots de 12 souris reçoivent une injection intrapéritonéale de 0,5 mg/kg de yohimbine, une demi-heure avant l'administration de CRL 40914.

[8] = souris, 0,25 mg/kg, 1 mg/kg, 4 mg/kg et 16 mg/kg i.p.

CCN1CCOC(c2ccccc2)C1 (centres unmarked) [CRL 40914, Chlorhydratede 2-phényl-4-éthyl-morpholine]
mydriase (souris [1]; 2 mg/kg i.p.): mydriase pendant 1 h | sédation (souris [1]; 2 mg/kg i.p.): sédation pendant 30 à 60 min | hypothermie (souris [1]; 2 mg/kg i.p., pendant 1 à 2 h): -3,6 °C | mydriase (souris [1]; 4 mg/kg i.p.): mydriase pendant 1 heure | sédation (souris [1]; 4 mg/kg i.p.): sédation pendant 30 à 60 min | hypothermie (souris [1]; 4 mg/kg i.p., pendant 1 h): -2,2 °C | excitation (souris [1]; 16 mg/kg i.p.): excitation pendant 30 min suivie d'une hyporéactivité au toucher | lacrymation (souris [1]; 16 mg/kg i.p.): lacrymation pendant 1 h | mydriase (souris [1]; 16 mg/kg i.p.): mydriase pendant 1 h | hypothermie (souris [1]; 16 mg/kg i.p., pendant 2 à 3 h): -2,8 °C | excitation (souris [1]; 64 mg/kg i.p.): excitation pendant 1 à 2 h avec manifestation de mouvements stéréotypés | mydriase (souris [1]; 64 mg/kg i.p.): mydriase pendant 1 h | piloérection, salivation et lacrymation (souris [1]; 64 mg/kg i.p.): piloérection, salivation et lacrymation pendant 1 h | polypnée (souris [1]; 64 mg/kg i.p.): polypnée pendant 2 h | durée de l'hypothermie (souris [2]; [8]): 90 à 120 min | température rectale (souris [2]; [8]): hypothermie maximale après 30 min | température rectale (souris [2]; souris, 64 mg/kg i.p.): hyperthermie qui apparaît à 30 min et qui fait ensuite place à une hypothermie modérée | action hypothermisante de l'apomorphine (souris [3]): s'oppose à l'action hypothermisante de l'apomorphine | indices de verticalisation et de stéréotypies (apomorphine) (souris [3]): semble augmenter les indices de verticalisation et de stéréotypies | hypothermie et ptosis réserpiniques (souris [4]): s'oppose à l'hypothermie et au ptosis réserpinique | effet hypothermisant de l'oxotrémorine (souris [5]; 16 mg/kg et 64 mg/kg i.p.): combat l'effet hypothermisant | tremblements dus à l'oxotrémorine (souris [5]; 64 mg/kg i.p.): diminue l'intensité des tremblements | signes de stimulation cholinergique périphérique provoqués par l'oxotrémorine (souris [5]): laisse inchangés les signes de stimulation cholinergique périphériques | activité motrice spontanée (souris [6]; 64 mg/kg i.p.): hyperactivité nette | activité motrice spontanée (souris [6]; dès 0,125 mg/kg i.p., maximum entre 0,5 mg/kg et 16 mg/kg): diminution de l'activité motrice spontanée | hypothermie induite par le CRL 40914 après yohimbine (souris [7]): empêche l'apparition de l'hypothermie
